Experimental data: ChEMBL document CHEMBL3992531, “Identification of new pyrrolo[2,3-d]pyrimidines as Src tyrosine kinase inhibitors in vitro active against Glioblastoma” (Eur J Med Chem, 2017)
Activity calls are given as the source filed them. The calls are words filed in the database; no cut-off is given here.

Legend:
[1] = biological target: Tyrosine-protein kinase Fyn (Homo sapiens, UniProt P06241); assay: Inhibition of human recombinant full length N-terminal His6-tagged Fyn expressed in baculovirus infected Sf21 cells using KVEKIGEGTYGVVYK as substrate after 10 mins in presence of [gamma-33P]ATP by scintillation counting method
[2] = tested on: Epidermal growth factor receptor (Homo sapiens), P00533 [L861Q]; assay: Inhibition of human recombinant N-terminal GST-tagged EGFR (696 residue-end) L861Q mutant expressed in baculovirus infected Sf21 cells using angiotensin-2 as substrate after 10 mins in presence of [gamma-33P]ATP by scintillation counting method
[3] = biological target: Proto-oncogene tyrosine-protein kinase Src (Homo sapiens, UniProt P12931); assay: Inhibition of human recombinant full length N-terminal His6-tagged Src expressed in Sf21 cells using KVEKIGEGTYGVVYK as substrate after 10 mins in presence of [gamma-33P]ATP by scintillation counting method
[4] = biological target: Mast/stem cell growth factor receptor Kit (Homo sapiens, UniProt P10721); assay: Inhibition of human recombinant GST-His6-tagged Kit C-terminal fragment (544 to 976 residues) using GGMEDIYFEFMGGKKK as substrate after 10 mins in presence of [gamma-33P]ATP by scintillation counting method
[5] = biological target: Tyrosine-protein kinase ABL1 (Homo sapiens, UniProt P00519); assay: Inhibition of Abl (unknown origin)
[6] = tested on: Tyrosine-protein kinase ABL1 (Homo sapiens), P00519 [T315I]; assay: Inhibition of Abl T315I mutant (unknown origin)
[7] = biological target: T1, Receptor-type tyrosine-protein kinase FLT3 (Homo sapiens, UniProt P36888); assay: Inhibition of Flt3 (unknown origin) using KVEKIGEGTYGVVYK as substrate after 10 mins in presence of [gamma-33P]ATP by scintillation counting method
T1 sequence (P36888 whole entry): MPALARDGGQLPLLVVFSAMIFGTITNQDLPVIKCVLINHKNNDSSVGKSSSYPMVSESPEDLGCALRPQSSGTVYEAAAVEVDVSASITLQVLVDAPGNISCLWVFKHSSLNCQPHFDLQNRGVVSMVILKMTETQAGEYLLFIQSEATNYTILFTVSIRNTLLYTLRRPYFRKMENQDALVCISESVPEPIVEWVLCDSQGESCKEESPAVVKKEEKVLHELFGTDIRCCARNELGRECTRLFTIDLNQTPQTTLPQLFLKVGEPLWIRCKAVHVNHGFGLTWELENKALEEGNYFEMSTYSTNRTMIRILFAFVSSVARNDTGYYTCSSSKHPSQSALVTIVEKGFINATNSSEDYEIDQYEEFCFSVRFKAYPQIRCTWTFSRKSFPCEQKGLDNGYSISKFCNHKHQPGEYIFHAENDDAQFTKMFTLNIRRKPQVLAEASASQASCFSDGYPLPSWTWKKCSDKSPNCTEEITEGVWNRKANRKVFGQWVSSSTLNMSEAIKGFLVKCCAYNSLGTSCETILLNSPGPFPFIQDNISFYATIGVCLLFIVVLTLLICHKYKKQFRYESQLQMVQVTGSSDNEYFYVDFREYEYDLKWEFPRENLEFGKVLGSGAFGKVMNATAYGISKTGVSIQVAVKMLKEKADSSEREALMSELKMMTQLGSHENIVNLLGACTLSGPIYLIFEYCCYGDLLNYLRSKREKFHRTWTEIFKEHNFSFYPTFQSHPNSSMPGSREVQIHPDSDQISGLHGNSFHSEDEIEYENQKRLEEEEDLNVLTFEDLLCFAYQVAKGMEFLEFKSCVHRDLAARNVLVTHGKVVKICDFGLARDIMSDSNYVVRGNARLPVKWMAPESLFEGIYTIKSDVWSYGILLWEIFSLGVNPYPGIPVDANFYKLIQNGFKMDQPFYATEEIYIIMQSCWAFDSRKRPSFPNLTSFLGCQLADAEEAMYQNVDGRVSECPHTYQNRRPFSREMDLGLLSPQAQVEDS

[8] = tested on: U-87 MG; assay: Cytotoxicity against human U87MG cells assessed as decrease in cell viability after 72 hrs by coulter counter analysis; type: functional, cell-based, U-87MG ATCC

Chain of Mast/stem cell growth factor receptor Kit (P10721 whole entry, the tested form may be a part): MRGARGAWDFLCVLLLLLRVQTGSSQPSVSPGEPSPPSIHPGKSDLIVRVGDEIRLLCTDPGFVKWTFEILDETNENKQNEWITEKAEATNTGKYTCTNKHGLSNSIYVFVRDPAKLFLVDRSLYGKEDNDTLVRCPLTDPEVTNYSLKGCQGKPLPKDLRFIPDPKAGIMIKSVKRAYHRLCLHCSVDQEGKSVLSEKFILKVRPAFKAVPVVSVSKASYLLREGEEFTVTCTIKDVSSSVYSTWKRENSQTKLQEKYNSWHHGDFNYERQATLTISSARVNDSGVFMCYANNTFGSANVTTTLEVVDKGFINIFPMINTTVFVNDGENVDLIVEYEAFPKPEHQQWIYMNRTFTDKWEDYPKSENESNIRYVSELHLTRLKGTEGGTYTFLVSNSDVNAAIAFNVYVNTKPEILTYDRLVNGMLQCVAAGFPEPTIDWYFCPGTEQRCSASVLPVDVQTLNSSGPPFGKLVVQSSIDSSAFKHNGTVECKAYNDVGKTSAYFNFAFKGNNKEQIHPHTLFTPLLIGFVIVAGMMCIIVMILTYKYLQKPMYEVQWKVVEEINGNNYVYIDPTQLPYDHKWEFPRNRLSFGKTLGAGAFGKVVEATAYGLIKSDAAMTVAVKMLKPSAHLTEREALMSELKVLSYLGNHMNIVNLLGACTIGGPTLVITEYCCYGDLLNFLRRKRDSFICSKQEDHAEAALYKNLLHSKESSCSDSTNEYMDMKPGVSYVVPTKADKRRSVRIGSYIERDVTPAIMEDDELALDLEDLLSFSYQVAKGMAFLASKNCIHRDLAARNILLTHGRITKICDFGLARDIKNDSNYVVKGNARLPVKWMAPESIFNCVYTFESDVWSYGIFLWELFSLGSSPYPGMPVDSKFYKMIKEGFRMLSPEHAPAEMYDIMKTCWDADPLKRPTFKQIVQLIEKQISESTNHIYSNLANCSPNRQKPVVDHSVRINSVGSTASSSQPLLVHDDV
Chain of Proto-oncogene tyrosine-protein kinase Src (P12931 2-536 limits assumed): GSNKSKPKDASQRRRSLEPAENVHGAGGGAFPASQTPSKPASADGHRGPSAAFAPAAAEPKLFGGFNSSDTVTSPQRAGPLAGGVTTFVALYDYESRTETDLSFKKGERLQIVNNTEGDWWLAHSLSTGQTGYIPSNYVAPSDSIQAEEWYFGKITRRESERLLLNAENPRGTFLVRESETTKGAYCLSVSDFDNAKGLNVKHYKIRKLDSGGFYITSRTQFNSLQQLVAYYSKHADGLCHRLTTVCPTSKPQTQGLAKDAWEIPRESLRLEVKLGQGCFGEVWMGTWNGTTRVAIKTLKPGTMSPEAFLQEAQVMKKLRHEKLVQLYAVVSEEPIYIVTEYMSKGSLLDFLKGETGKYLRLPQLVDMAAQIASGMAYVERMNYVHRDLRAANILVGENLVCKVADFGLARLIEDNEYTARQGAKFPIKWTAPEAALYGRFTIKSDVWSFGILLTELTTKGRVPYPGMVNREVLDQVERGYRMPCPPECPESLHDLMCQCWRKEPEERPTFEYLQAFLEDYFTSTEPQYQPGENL
Chain of Epidermal growth factor receptor (Homo sapiens), P00533 [L861Q] (P00533 whole entry L861Q): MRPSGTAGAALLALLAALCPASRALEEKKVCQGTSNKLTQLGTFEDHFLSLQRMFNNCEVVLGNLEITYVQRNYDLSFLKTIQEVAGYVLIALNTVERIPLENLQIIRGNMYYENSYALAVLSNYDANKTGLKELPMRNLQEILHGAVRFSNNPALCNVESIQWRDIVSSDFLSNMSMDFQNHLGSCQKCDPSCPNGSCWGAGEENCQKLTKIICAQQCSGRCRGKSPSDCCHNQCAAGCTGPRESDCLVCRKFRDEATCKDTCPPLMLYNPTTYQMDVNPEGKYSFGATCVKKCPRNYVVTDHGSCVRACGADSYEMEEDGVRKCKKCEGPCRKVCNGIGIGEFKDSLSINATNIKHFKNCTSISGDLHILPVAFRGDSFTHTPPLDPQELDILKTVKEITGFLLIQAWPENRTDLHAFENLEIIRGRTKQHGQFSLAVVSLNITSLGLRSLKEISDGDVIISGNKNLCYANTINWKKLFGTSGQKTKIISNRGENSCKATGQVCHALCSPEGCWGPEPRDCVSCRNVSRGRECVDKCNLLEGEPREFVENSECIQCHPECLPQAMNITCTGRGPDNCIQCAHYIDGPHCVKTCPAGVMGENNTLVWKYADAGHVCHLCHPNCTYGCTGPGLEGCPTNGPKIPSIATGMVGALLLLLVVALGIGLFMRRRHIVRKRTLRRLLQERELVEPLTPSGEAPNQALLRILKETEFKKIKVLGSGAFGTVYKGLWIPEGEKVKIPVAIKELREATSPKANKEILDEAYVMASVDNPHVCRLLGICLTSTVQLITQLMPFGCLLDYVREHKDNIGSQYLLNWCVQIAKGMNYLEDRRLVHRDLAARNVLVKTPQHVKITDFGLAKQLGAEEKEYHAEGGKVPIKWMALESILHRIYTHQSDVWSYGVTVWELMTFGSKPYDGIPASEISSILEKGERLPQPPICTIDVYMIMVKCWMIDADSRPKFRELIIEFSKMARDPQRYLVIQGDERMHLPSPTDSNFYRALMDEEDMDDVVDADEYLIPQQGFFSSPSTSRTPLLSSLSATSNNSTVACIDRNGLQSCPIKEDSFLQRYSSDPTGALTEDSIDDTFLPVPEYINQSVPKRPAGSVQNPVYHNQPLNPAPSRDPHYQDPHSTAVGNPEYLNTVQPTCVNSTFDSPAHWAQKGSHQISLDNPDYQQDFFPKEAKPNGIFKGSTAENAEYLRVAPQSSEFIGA
Chain of Tyrosine-protein kinase Fyn (P06241 whole entry): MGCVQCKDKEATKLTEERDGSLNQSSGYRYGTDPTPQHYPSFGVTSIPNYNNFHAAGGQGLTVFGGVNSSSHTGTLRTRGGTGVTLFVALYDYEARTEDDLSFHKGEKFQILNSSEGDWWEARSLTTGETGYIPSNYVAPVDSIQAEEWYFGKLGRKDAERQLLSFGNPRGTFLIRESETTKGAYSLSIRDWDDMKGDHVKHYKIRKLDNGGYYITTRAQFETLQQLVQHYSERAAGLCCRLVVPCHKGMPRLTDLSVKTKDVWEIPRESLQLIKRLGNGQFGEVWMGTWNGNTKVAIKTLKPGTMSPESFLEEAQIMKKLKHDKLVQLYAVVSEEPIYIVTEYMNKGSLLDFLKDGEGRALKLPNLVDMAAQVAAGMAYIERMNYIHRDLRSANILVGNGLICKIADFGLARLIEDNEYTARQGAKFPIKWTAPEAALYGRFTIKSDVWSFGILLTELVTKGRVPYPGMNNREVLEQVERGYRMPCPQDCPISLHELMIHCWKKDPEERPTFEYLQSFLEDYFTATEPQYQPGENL

Structure (SMILES) | IC50 ([1]; read-out: IC50) | inhibition [2] | Ki [3] | IC50 [4] | IC50 [5] | inhibition [6] | IC50 ([7]; read-out: IC50) | IC50 [8] | IC50 [1] | IC50 [7] | IC50 ([5]; read-out: IC50)
CSc1nc(Nc2ccccc2)c2ccn(CC(Cl)c3ccccc3)c2n1 (stereo not given) | 62 µM | inactive | 1.5 µM | Not Active | Not Active | inactive | 72 µM | 27.4 µM |  |  | 
CCCCNc1nc(SC)nc2c1ccn2Cc1ccc(F)cc1 |  | inactive | 3 µM | Not Active | Not Active | inactive |  | 20.7 µM | Not Active | Not Active | 
CSc1nc(N2CCOCC2)c2ccn(Cc3ccc(F)cc3)c2n1 |  | inactive | 4.7 µM | Not Active | Not Active | inactive | 61 µM | 20.3 µM | Not Active |  | 
CSc1nc(NCc2ccccc2)c2ccn(CC(Cl)c3ccccc3)c2n1 (stereo not given) | 88.6 µM | inactive | 6 µM | Not Active | Not Active | inactive | 68 µM | 50.7 µM |  |  | 
CSc1nc(NCc2ccccc2)c2ccn(Cc3ccc(F)cc3)c2n1 | 43.2 µM | inactive | 0.5 µM | Not Active |  | inactive | 60 µM | 7.1 µM |  |  | 70 µM
CSc1nc(NCCc2ccc(Cl)cc2)c2ccn(Cc3ccc(F)cc3)c2n1 | 70.4 µM | inactive | 5 µM | Not Active | Not Active | inactive | 76 µM | 46.1 µM |  |  | 
CSc1nc(N2CCCC2)c2ccn(Cc3ccc(F)cc3)c2n1 | 76 µM | inactive | 2 µM | Not Active | Not Active | inactive | 64 µM | 51.8 µM |  |  | 
CSc1nc(N2CCCCC2)c2ccn(Cc3ccc(F)cc3)c2n1 | 57.1 µM | inactive | 2.5 µM | Not Active | Not Active | inactive | 61 µM | 50.7 µM |  |  | 
CSc1nc(NCCc2ccccc2)c2ccn(Cc3ccc(F)cc3)c2n1 | 30.8 µM | inactive | 0.8 µM | Not Active | Not Active | inactive |  | 13.3 µM |  | Not Active | 
CSc1nc(Nc2cccc(Cl)c2)c2ccn(CC(Cl)c3ccccc3)c2n1 (stereo not given) | 58.2 µM | inactive | 0.7 µM | Not Active | Not Active | inactive | 55 µM | 143 µM |  |  | 
